Test results as given in patent EP0934745B1, “Use of androsterone derivatives for inhibiting DNA binding of ap-1 and airway smooth muscle proliferation” (CHARLOTTE-MECKLENBURG HOSPITAL doing business as Carolinas …, priority 1998, dated 1999).

Assays:
[1] = test system: transcription factor activator protein-1 (AP-1); test: Electrophoretic mobility shift assay of DNA binding of AP-1 in nuclear protein from treated cells; assay type: cell-based, rat; settings: pretreated 2 hours, then 10% FBS 6 hours; 50 µM DHEA; 2 and 10 µM 16α-BrEA (Figures 8A, 8B)
Method: To study the effect of DHEA and 16α-BrEA on activation of AP-1, a secondary response important in cellular growth and proliferation (Angel and Karin, (1991), supra) confluent monolayers of airway smooth muscle in 75-cm^2 Petri dishes were growth arrested for 24 hours in 0.5% FBS and DMEM and pretreated 2 hours with DHEA, 16α-BrEA or DMSO vehicle. Cells were then stimulated with 10% FBS in DMEM for 6 hours, nuclear protein was harvested, and electrophoretic mobility shift assays were performed as described below to determine if treatment with DHEA and 16α-BrEA impaired DNA binding of AP-1. Measurement of Cytotoxicity and Apoptosis. To assess for cytotoxicity, DHEA or 16α-BrEA were added to wells of airway smooth muscle cells previously grown to confluence in DMEM and 10% FBS. After 24 hours, media was microfuged 5 minutes and supernatant was assayed for lactate dehydrogenase activity using a commercially available assay (DG-1340K from Sigma). Cells were washed twice in DPBS and exposed to trypan blue dye (0.04% in Hanks' balanced salt solution). Cell counts were performed in five random fields using a 0.01-cm^2 ocular grid to quantitate the average number of damaged or dead cells that accumulated dye.
RNA (100 ng) was reverse-transcribed using M-MLV reverse transcriptase. […] The resulting polaroid negative was quantitated using a Bio Image Analyzer (Bio Image, Ann Arbor, MI). […]

Human Erythrocyte G6PDH = target: T1, Human Erythrocyte G6PDH (Homo sapiens, UniProt P11413); test: Inhibition of purified glucose 6-phosphate dehydrogenase activity; assay type: biochemical; settings: 0.01 U/ml Type XXVI G6PDH from human erythrocytes, vs DMSO vehicle-treated controls, read-out: PERCENT INHIBITION OF GLUCOSE 6-PHOSPHATE DEHYDROGENASE ACTIVITY
T1 construct: purified G6PDH from human erythrocytes; purchased Sigma Type XXVI; host or cells: human erythrocytes (natural source)

guinea pig main bronchi = test: Bronchial smooth muscle contraction in vitro (isolated bronchial rings, isometric tension)
Method: Effect on bronchial smooth muscle contraction in vitro. To study the effect of DHEA on bronchial smooth muscle in vitro, male Hartley guinea-pigs (Charles River Laboratories, Inc., Wilmington, MA) were anaesthetized with sodium pentobarbital (pentobarbital sodium (Abbott Laboratories) (200 mg/kg intraperitoneally). Then trachea and lungs were quickly removed and immersed in oxygenated Krebs-Henseleit solution (K-H) containing (mM) : 115 NaCl, 25 NaHCO3, 1.38 NaH2PO4, 2.5 KCl, 2.46 MgSO4, 1.9 CaCl2, and 5.56 dextrose, aerated with 95% O2 and 5% CO2.
The main bronchi were dissected free of loose connective tissue, under a stereo-microscope (Olympus SZH10), and bronchial rings were obtained and mounted in double jacketed organ baths filled with K-H at 37°C and continuously aerated with a 95% O2 and 5% CO2 gas mixture, which produced a pH of 7.4. The bronchial rings were connected to force displacement transducers (Grass FTO3) for continuous recording of isometric tension on paper polygraph (Gould RS3800) and allowed to equilibrate for 90 minutes. After the equilibration period 1mM acetylcholine was administered and the response monitored.
Bronchial rings were partially contracted with 3·10^-2 M KCl or 10^-5 M acetylcholine (ACh) , then the effect of DHEA was studies by increasing cumulatively its concentration at log intervals from 10^-3 to 10^-4 M and measuring the changes produced in active tension.
A concentration of 3 x 10^-2 M KCl was chosen on the basis of preliminary experiments, in which from concentration-response curves to KCl (10^-2 - 10^-1 M) it was determined that the concentration of KCl eliciting 50% of the maximum response (KCl-EC50) in the experimental set up. […] Similarly, 10^-5 M acetylcholine (ACh) was chosen as the concentration of ACh eliciting 50% of the maximum response.
Since DHEA was dissolved in dimethyl sulfoxide (DMSO), four additional rings were contracted with 3 x 10^-2 M KCl (n=5) or 10^-5 M ACh (n=5) to determine whether this vehicle produced any alteration of the active force. […] The maximum final concentration of DMSO in the organ bath was 0.15%.
Three of the strips used to study DHEA were rinsed with fresh K-H at the end of the experiment, treated with 1 mM acetylcholine, and the response monitored.
In a second set of experiments either a single dose of 10^-5 M ACh was administered or a concentration-response curve to ACh was performed in the presence or absence of 10^-4 M DHEA (administered 15 minutes before ACh). The single dose of ACh was used to measure the rate of tension development, while the concentration-response study was used to evaluate whether DHEA affected sensitivity to ACh.

T1 sequence (P11413 whole entry): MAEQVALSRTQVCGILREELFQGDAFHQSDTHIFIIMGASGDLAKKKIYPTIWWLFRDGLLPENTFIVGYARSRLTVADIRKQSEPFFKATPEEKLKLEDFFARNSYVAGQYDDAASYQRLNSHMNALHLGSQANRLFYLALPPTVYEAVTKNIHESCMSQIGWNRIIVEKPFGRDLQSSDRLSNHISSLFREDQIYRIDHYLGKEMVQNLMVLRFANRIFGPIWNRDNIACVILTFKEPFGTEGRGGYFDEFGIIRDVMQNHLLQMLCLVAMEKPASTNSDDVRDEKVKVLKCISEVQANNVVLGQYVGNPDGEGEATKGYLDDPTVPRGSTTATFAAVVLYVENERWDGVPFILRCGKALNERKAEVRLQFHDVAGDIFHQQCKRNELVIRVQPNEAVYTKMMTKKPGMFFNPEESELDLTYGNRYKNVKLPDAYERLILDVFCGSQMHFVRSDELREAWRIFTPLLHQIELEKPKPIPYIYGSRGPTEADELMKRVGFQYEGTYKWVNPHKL

C[C@]12CC[C@H](O)C[C@@H]1CC[C@@H]1[C@@H]2CC[C@]2(C)C(=O)[C@H](Br)C[C@@H]12 [16α-BrEA, 16α-bromoepiandrosterone]
DNA binding of AP-1 [1]: inhibit DNA binding of AP-1
inhibition at 25 µM (Human Erythrocyte G6PDH; 25 µM): 47 ± 6%
inhibition at 50 µM (Human Erythrocyte G6PDH; 50 µM): 57 ± 9%

C[C@]12CC[C@H](O)CC1=CC[C@@H]1[C@@H]2CC[C@]2(C)C(=O)CC[C@@H]12 [DHEA, dehydroepiandrosterone]
rate of tension development in response to 10^-5 ACh (guinea pig main bronchi; 10^-4 M DHEA administered 15 minutes before ACh, 2.27±0.82 without DHEA): 1.85±0.85
relaxation of the ACh-induced contraction (guinea pig main bronchi; 10^-4 M DHEA, bronchi partially contracted with 10^-5 M ACh, n=5): 37.98±4.76%
EC50 (guinea pig main bronchi; Cavia porcellus, read-out: concentration of DHEA which produced 50% relaxation of the KCl-induced contraction): 21.6 µM
relaxation of the KCl-induced contraction (guinea pig main bronchi; maximum concentration of DHEA, bronchi partially contracted with 3 x 10^-2 M KCl, after subtraction of the reduction of force due to time-vehicle, n=6): 76.28±6.96%
smooth muscle functionality (response to 1 mM acetylcholine after rinsing) (guinea pig main bronchi; three strips rinsed with fresh K-H at the end of the DHEA experiment): not altered
DNA binding of AP-1 [1]: inhibit DNA binding of AP-1
